Measured values published in patent US11578055B2, “Triazacyclododecansulfonamide (“TCD”)-based protein secretion inhibitors” (KEZAR LIFE SCIENCES, priority 2018, dated 2023).

What was measured:
[1] = In Vitro Microsome Stability Assay (monkey); assay type: in vitro ADME; conditions: monkey liver microsomes, 30 min w/ NADPH
Method in brief: (§1)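 Test article, added from a 0.25 mM DMSO stock, was incubated with liver microsomes (20 mg/mL stock) in 0.1 M potassium phosphate at 37° C, with the reaction started by NADPH. Samples were quenched with acetonitrile containing internal standard at 0 and 30 min and analysed by LC-MS/MS. Values are % remaining at 30 min versus 0 min, using IS-normalised AUC ratios.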

[2] = tested on: multiple myeloma cell line NCl-H929; assay: H929 Cell Viability Assay; assay type: cell-based, human; conditions: Homo sapiens, NCI-H929, 48 h, H929, Celltiter-Glo
Method in brief: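 Viability was determined by CellTiter-Glo luminescence after a 48 h, 37 °C exposure of NCI-H929 cells to serial compound dilutions in medium containing 10% FBS. Where stereochemistry is not shown, values refer to a mix of stereoisomers.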

[3] = tested on: multiple myeloma cell line U266B1; assay: U266 Cell Viability Assay; assay type: cell-based, human; conditions: Homo sapiens, U-266; 48 hr, U266, Celltiter-Glo
Method in brief: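 Viability was measured by CellTiter-Glo luminescence after 48 h compound exposure at 37° C, 5% CO2. The cells were U266B1 multiple myeloma cells grown in RPMI 1640 plus 10% FBS. Where stereochemistry is not shown, values apply to the stereoisomer mixture.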

[4] = In Vitro Microsome Stability Assay (human); assay type: in vitro ADME; conditions: human liver microsomes, 30 min w/ NADPH
Method in brief: as §1

[5] = In Vitro Microsome Stability Assay (mouse); assay type: in vitro ADME; conditions: mouse liver microsomes, 30 min w/ NADPH
Method in brief: as §1

[6] = In Vitro Microsome Stability Assay (rat); assay type: in vitro ADME; conditions: rat liver microsomes, 30 min w/ NADPH
Method in brief: as §1

[7] = tested on: PD1 signal sequence plus 10 amino acids fused to Gaussia Luciferase (PD1-ss+10aa/Gaussia Luciferase); assay: Dox Induced PD1-ss-Gluc Assay; assay type: cell-based; conditions: 24 hr, Dox inducible, 293FRT/TO cells; read-out: 24 hr Dox Inducible PD1ssGluc 293FRT/TO: Mean IC50
Method in brief: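 Compound dilutions in DMSO/media containing doxycycline were applied to a stable, inducible 293 T-REx line carrying the luciferase fusion, then incubated at 37 °C, 5% CO2. Where stereochemistry is not drawn, values relate to isomer mixtures.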

[8] = tested on: full length IL-2 (amino acids 1-153) fused to Gaussia Luciferase; assay: Dox Induced IL2-FL-Gluc Assay; assay type: cell-based; conditions: 24 hr, Dox inducible, 293FRT/TO cells; read-out: 24 hr Dox Inducible IL2FLGluc 293FRT/TO: Mean IC50
Method in brief: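 Compounds in DMSO/media with doxycycline were added to cells plated the previous day and incubated at 37° C, 5% CO2. Cells: stable Flp-In 293 T-REx line, Dox-regulated expression of IL-2 (aa 1-153) fused at its C-terminus to Gaussia luciferase.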

[9] = tested on: full length TNFα (amino acids 1-233) fused to Gaussia Luciferase; assay: Dox Induced TNFα-FL-Gluc Assay; assay type: cell-based; conditions: 24 hr, Dox inducible, 293FRT/TO cells; read-out: 24 hr Dox Inducible TNFaFLGluc 293FRT/TO: Mean IC50
Method in brief: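 Compounds diluted in DMSO/medium with doxycycline were incubated at 37° C, 5% CO2 with 293 T-REx cells stably carrying a Tet-regulated TNFα(1-233)-Gaussia luciferase construct. Data for structures drawn without stereochemistry refer to stereoisomer mixtures.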

| SMILES | Liver Microsome Stability-% Left after 30 min w/ NADPH (%) Monkey [1] | EC50 [2] | EC50 [3] | Liver Microsome Stability-% Left after 30 min w/ NADPH (%) Human [4] | Liver Microsome Stability-% Left after 30 min w/ NADPH (%) Mouse [5] | Liver Microsome Stability-% Left after 30 min w/ NADPH (%) Rat [6] | IC50 [7] | IC50 [8] | IC50 [9] |
| --- | --- | --- | --- | --- | --- | --- | --- | --- | --- |
| C[C@H]1CN(S(=O)(=O)c2ccc(N(C)C)cc2)CCCN(CC2CCCCC2)CCCN(S(=O)(=O)N2CCN(c3ccccc3C#N)CC2)C1 [A118, 2-(4-{[(3S)-9-(cyclohexylmethyl)-5-[4-(dimethylamino)benzenesulfonyl]-3-methyl-1,5,9-triazacyclododecan-1-yl]sulfonyl}piperazin-1-yl)benzonitrile] | 14.7% | 5350 nM | > 25000 nM | 14.2% | 22.1% | 18.3% | 67.8 nM | 173 nM | 2090 nM |
| Cc1cccc(C)c1N1CCN(S(=O)(=O)N2CCCN(CC3CCCCC3)CCCN(S(=O)(=O)c3ccc(N(C)C)cc3)C[C@H](C)C2)CC1 [A119, 4-{[(3S)-9-(cyclohexylmethyl)-5-{[4-(2,6-dimethylphenyl)piperazin-1-yl]sulfonyl}-3-methyl-1,5,9-triazacyclododecan-1-yl]sulfonyl}-N,N-dimethylaniline] | 53.9% | 7680 nM | > 25000 nM | 71.7% | 50.8% | 66.1% | 52.3 nM | 170 nM | 1080 nM |
| CC(C)CCN1CCCN(S(=O)(=O)c2ccc(N(C)C)cc2)C[C@H](C)CN(S(=O)(=O)N2CCc3cc(Cl)ccc3C2)CCC1 [A123, 4-{[(3S)-5-[(6-chloro-1,2,3,4-tetrahydroisoquinolin-2-yl)sulfonyl]-3-methyl-9-(3-methylbutyl)-1,5,9-triazacyclododecan-1-yl]sulfonyl}-N,N-dimethylaniline] | 3.47% | 835 nM | > 25000 nM | 5.02% | 6.13% | 7.41% | 14 nM | 45.9 nM | 425 nM |
| C[C@H]1CN(S(=O)(=O)c2ccc(N(C)C)cc2)CCCN(Cc2ncco2)CCCN(S(=O)(=O)N2CCc3cc(Cl)ccc3C2)C1 [A125, 4-{[(3S)-5-[(6-chloro-1,2,3,4-tetrahydroisoquinolin-2-yl)sulfonyl]-3-methyl-9-[(1,3-oxazol-2-yl)methyl]-1,5,9-triazacyclododecan-1-yl]sulfonyl}-N,N-dimethylaniline] | 8.67% | > 25000 nM | > 25000 nM | 0.2% | 0.14% | 0.37% | 829 nM | 1090 nM | 11500 nM |
| Cc1ccc(CN2CCCN(S(=O)(=O)c3ccc(N(C)C)cc3)C[C@H](C)CN(S(=O)(=O)N3CCc4cc(Cl)ccc4C3)CCC2)cc1 [A131, 4-{[(3S)-5-[(6-chloro-1,2,3,4-tetrahydroisoquinolin-2-yl)sulfonyl]-3-methyl-9-[(4-methylphenyl)methyl]-1,5,9-triazacyclododecan-1-yl]sulfonyl}-N,N-dimethylaniline] | 70.2% | 4740 nM | > 25000 nM | 84.5% | 101% | 73.9% | 145 nM | 426 nM | 2400 nM |
